From US12129276B2, “Oxysterols and methods of use thereof” (SAGE THERAPEUTICS, INC., priority 2014, dated 2024)

How the values were obtained:
[1] = target: T1, NMDA receptor (GRIN1/GRIN2A subunits) expressed in HEK cells (Homo sapiens, UniProt Q05586+Q12879); test: Whole-cell patch clamp of mammalian cells, NMDA potentiation; assay type: cell-based; parameters: key: “A” indicates >5 to 50%; B: >50%; C indicates not active in the assay; details: 1 μM test article, 30 μM NMDA and 5.0 μM glycine, holding potential −80 mV
T1 construct: expressed in transfected cells
T1 sequence (Q12879 23-1464, other chains not shown): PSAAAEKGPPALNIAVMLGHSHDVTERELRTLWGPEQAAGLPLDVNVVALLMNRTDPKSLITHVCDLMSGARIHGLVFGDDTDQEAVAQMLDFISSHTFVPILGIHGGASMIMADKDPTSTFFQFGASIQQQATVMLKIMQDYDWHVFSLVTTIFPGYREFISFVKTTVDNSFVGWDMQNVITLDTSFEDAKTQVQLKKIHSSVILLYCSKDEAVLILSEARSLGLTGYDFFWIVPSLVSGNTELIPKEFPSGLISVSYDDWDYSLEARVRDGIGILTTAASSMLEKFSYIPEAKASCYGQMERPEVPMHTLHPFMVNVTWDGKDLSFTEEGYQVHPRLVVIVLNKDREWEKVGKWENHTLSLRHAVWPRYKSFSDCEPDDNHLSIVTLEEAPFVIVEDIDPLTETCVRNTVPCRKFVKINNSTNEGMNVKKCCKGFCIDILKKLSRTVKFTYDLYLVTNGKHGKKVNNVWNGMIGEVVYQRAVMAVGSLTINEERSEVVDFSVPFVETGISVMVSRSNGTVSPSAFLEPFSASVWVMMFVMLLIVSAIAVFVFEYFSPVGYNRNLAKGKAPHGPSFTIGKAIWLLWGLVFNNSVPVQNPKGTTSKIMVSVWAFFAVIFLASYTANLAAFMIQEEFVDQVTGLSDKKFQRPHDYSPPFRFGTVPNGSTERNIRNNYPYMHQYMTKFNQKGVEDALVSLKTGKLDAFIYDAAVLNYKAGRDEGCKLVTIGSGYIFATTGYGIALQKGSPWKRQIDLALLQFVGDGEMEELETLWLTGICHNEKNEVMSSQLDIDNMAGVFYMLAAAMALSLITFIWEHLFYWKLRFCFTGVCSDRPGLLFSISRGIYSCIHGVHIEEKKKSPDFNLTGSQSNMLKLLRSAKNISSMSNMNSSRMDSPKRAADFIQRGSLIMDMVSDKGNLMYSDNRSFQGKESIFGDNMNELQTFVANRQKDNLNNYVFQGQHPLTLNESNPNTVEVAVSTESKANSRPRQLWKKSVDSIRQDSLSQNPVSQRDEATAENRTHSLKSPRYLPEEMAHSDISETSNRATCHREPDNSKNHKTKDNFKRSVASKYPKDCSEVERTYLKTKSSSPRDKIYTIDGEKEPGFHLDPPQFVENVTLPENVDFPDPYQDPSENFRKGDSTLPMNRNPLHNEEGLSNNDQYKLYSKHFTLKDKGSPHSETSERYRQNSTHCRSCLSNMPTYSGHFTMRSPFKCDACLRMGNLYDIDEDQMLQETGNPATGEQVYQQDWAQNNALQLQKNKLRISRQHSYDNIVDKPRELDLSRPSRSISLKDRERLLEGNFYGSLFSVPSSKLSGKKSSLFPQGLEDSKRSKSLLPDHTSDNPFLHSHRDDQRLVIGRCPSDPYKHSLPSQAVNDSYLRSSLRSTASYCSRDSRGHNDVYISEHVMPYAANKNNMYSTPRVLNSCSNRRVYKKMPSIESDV
Procedure: NMDA potentiation was assessed using either whole cell patch clamp of mammalian cells which expressed NMDA receptors, or using two-electrode voltage clamp (TEVC) of Xenopus laevis oocytes expressing NMDA receptors.
The whole-cell patch-clamp technique was used to investigate the effects of compounds on the NMDA receptor (GRIN1/GRIN2A subunits) expressed in HEK cells. NMDA/Glycine peak and steady-state currents were recorded from stably transfected cells expressing the NMDA receptor and the modulatory effects of the test items on these currents were investigated.
Cells were stably transfected with human GRIN1 (variant NR1-3). These cells were transiently transfected (Lipofectamine™) with GRIN2A cDNA and CD8 (pLeu) antigene cDNA. About 24-72 hours following transfection 1 μl Dynabeads M-45 CD8 was added to identify successfully transfected cells (Jurman et al., Biotechniques (1994) 17:876-881). Cells were passaged to a confluence of 50-80%. Cells were seeded onto Poly-L-Lysine coated cover slips covered with culture complete medium in a 35 mm culture dish. Confluent clusters of cells are electrically coupled (Pritchett et al., Science (1988), 242:1306-8). Because responses in distant cells are not adequately voltage clamped and because of uncertainties about the extent of coupling (Verdoorn et al., Neuron (1990), 4:919-28), cells were cultivated at a density that enables single cells (without visible connections to neighboring cells) to be measured. Cells were incubated at 37° C. in a humidified atmosphere with 5% CO2 (rel. humidity about 95%). The cells were continuously maintained in and passaged in sterile culture flasks containing a 1:1 mixture of Dulbecco's modified eagle medium and nutrient mixture F-12 (D-MEM/F-12 1×, liquid, with L-Glutamine) supplemented with 9% fetal bovine serum and 0.9% Penicillin/Streptomycin solution. The complete medium was supplemented with 3.0 μg/ml Puromycin.
Whole cell currents were measured with HEKA EPC-10 amplifiers using PatchMaster software. Cell culture dishes for recordings were placed on the dish holder of the microscope and continuously perfused (1 ml/min) with “bath solution” (NaCl 137 mM, KCl 4 mM, CaCl2) 1.8 mM, MgCl2 1 mM, HEPES 10 mM, D-Glucose 10 mM, pH (NaOH) 7.4). All solutions applied to cells including the pipette solution were maintained at room temperature (19° C.-30° C.). After formation of a Gigaohm seal between the patch electrodes and transfected individual HEK 293 cells (pipette resistance range: 2.5 MΩ-6.0 MΩ; seal resistance range: >1 GQ) the cell membrane across the pipette tip was ruptured to assure electrical access to the cell interior (whole-cell patch-configuration). At this point the bath solution is switched to “NMDA bath solution” (NaCl 137 mM, KCl 4 mM, CaCl2) 2.8 mM, HEPES 10 mM, D-Glucose 10 mM, Cremophore 0.02%, pH (NaOH) 7.4). NMDA inward currents were measured upon application of 30 μM NMDA (and 5.0 μM Glycine) to patch-clamped cells (2 applications) for 5 s. The cells were voltage clamped at a holding potential of −80 mV. For the analysis of test articles, NMDA receptors were stimulated by 30 μM NMDA and 5.0 μM Glycine after sequential pre-incubation of increasing concentrations of the test article. Pre-incubation duration was 30 s. Stimulation duration was 5 s Test articles were dissolved in DMSO to form stock solutions of 0.1 mM and 1 mM. Test articles were diluted to 0.1 μM and 1 μM in “NMDA bath solution”. Both concentrations of test articles were tested on each cell. […]

[2] = target: T2, NR1/NR2A glutamate receptors expressed in mammalian cells (Homo sapiens, UniProt Q05586+Q12879); test: Whole-cell patch clamp of mammalian cells (IWB, Ion Works Barracuda); assay type: cell-based; details: 3 μM test article, co-application with EC20 L-glutamate and 30 μM glycine
T2 construct: expressed in transfected cells
T2 sequence (Q12879 23-1464, other chains not shown): as above
Procedure: The whole-cell patch-clamp technique was used to investigate the effects of compounds on NR1/NR2A glutamate receptors expressed in mammalian cells.
Test article effects were evaluated in 8-point concentration-response format (4 replicate wells/concentration). All test and control solutions contained 0.3% DMSO and 0.01% Kolliphor® EL (C5135, Sigma). The test article formulations were loaded in a 384-well compound plate using an automated liquid handling system (SciClone ALH3000, Caliper LifeScienses). The measurements were performed using Ion Works Barracuda platform following this procedure: Electrophysiological Procedures: • a) Intracellular solution (mM): 50 mM CsCl, 90 mM CsF, 2 mM MgCl2, 5 mM EGTA, 10 mM HEPES. Adjust to pH 7.2 with CsOH. • b) Extracellular solution, HB-PS (composition in mM): NaCl, 137; KCl, 1.0; CaCl2, 5; HEPES, 10; Glucose, 10; pH adjusted to 7.4 with NaOH (refrigerated until use). • c) Holding potential: −70 mV, potential during agonist/PAM application: −40 mV. Recording Procedure: • a) Extracellular buffer will be loaded into the PPC plate wells (11 μL per well). Cell suspension will be pipetted into the wells (9 μL per well) of the PPC planar electrode. • b) Whole-cell recording configuration will be established via patch perforation with membrane currents recorded by on-board patch clamp amplifiers. • c) Two recordings (scans) will be performed. First, during pre-application of PAM alone (duration of pre-application—5 min) and second, during test articles and agonist (EC20 L-glutamate and 30 μM glycine) co-application to detect positive modulatory effects of the test article.
Test Article Administration: The first pre-application will consist of the addition of 20 μL of 2× concentrated test article solution and, second, of 20 μL of 1× concentrated test article and agonist at 10 μL/s (2 second total application time).

Row | SMILES | NMDA 1a2A (%) Potentiation 1 μM [1] | GluN2A PCA IWB Ephys % potentiation at 3 μM [2]
1 | C[C@H](CCC(C)(C)O)[C@H]1CC[C@H]2[C@@H]3CC=C4C[C@@H](O)CC[C@]4(CO)[C@H]3CC[C@]12C | A (“A” indicates >5 to 50%) | 
2 | COC[C@]12CC[C@](C)(O)CC1=CC[C@@H]1[C@@H]2CC[C@]2(C)[C@@H]([C@H](C)CCCO)CC[C@@H]12 | A (“A” indicates >5 to 50%) | 
3 | COC[C@]12CC[C@](C)(O)C[C@@H]1CC[C@H]1[C@@H]3CC[C@H]([C@H](C)CCCO)[C@@]3(C)CC[C@@H]12 | C | 
4 | COC[C@]12CC[C@](C)(O)C[C@@H]1CC[C@H]1[C@@H]3CC[C@H]([C@H](C)CCC(O)C(F)(F)F)[C@@]3(C)CC[C@@H]12 (stereo partly shown) |  | B (“B” indicates potentiation of >150%)
5 | COC[C@]12CC[C@](C)(O)CC1=CC[C@@H]1[C@@H]2CC[C@]2(C)[C@@H]([C@H](C)CCC(O)C(F)(F)F)CC[C@@H]12 (stereo partly shown) |  | A (“A” indicates 10 to 150%)
6 | CCC(O)(CC)CC[C@@H](C)[C@H]1CC[C@H]2[C@@H]3CC=C4C[C@@](C)(O)CC[C@]4(COC)[C@H]3CC[C@]12C |  | A (“A” indicates 10 to 150%)
7 | COC[C@]12CC[C@](C)(O)CC1=CC[C@@H]1[C@@H]2CC[C@]2(C)[C@@H]([C@H](C)CCC(C)(C)O)CC[C@@H]12 [drawing 25] | A (“A” indicates >5 to 50%) | 
8 | COC[C@]12CC[C@](C)(O)C[C@@H]1CC[C@H]1[C@@H]3CC[C@H]([C@H](C)CCC(C)(C)O)[C@@]3(C)CC[C@@H]12 [drawing 26] | B (B: >50%) | 
9 | COC[C@]12CC[C@](C)(O)CC1=CC[C@@H]1[C@@H]2CC[C@]2(C)[C@@H]([C@H](C)CCC(C)(C)O)CC[C@@H]12 [drawing 28] |  | A (“A” indicates 10 to 150%)
10 | COC[C@]12CC[C@](C)(O)C[C@@H]1CC[C@H]1[C@@H]3CC[C@H]([C@H](C)CCC(C)(C)O)[C@@]3(C)CC[C@@H]12 [drawing 32] |  | A (“A” indicates 10 to 150%)
